Experimental data taken from patent US10874104B2, “Pesticidally active pryazole derivatives” (SYNGENTA PARTICIPATIONS AG, priority 2016, dated 2020).
Where two headings read alike, the source gives them in different places.

Columns and labels:
Assay type in all cases: in vivo
[1] = test system: Diabrotica balteata (Corn Root Worm); assay: Diabrotica balteata (corn root worm), sprayed maize sprouts on agar, mortality; conditions: 96 h, application rate 200 ppm, L2 larvae, 4 days after infestation, read-out: mortality
Description: Diabrotica balteata (Corn Root Worm):
Maize sprouts placed onto an agar layer in 24-well microtiter plates were treated with aqueous test solutions prepared from 10′000 ppm DMSO stock solutions by spraying. After drying, the plates were infested with L2 larvae (6 to 10 per well). The samples were assessed for mortality 4 days after infestation.

[2] = test system: Euschistus heros (Neotropical Brown Stink Bug); assay: Euschistus heros (neotropical brown stink bug), feeding/contact activity, mortality; conditions: 120 h, application rate 200 ppm, N2 nymphs, 5 days after infestation, read-out: mortality
Description: Euschistus heros (Neotropical Brown Stink Bug): Feeding/contact activity
Soybean leaves on agar in 24-well microtiter plates were sprayed with aqueous test solutions prepared from 10′000 ppm DMSO stock solutions. After drying the leaves were infested with N2 nymphs. The samples were assessed for mortality 5 days after infestation.

[3] = test system: Myzus persicae (Green Peach Aphid); assay: Myzus persicae (green peach aphid), feeding/contact activity, mortality; conditions: 144 h, application rate 200 ppm, aphid population of mixed ages, 6 days after infestation
Description: Myzus persicae (Green Peach Aphid): Feeding/Contact Activity
(§1) Sunflower leaf discs were placed onto agar in a 24-well microtiter plate and sprayed with aqueous test solutions prepared from 10′000 ppm DMSO stock solutions. After drying, the leaf discs were infested with an aphid population of mixed ages. The samples were assessed for mortality 6 days after infestation.

[4] = test system: Plutella xylostella (Diamond Back Moth); assay: Plutella xylostella (diamond back moth), feeding/contact activity on artificial diet, mortality; conditions: 120 h, application rate 200 ppm, L2 larvae on artificial diet, 5 days after infestation, read-out: mortality
Description: Plutella xylostella (Diamond Back Moth): Feeding/Contact Activity
24-well microtiter plates with artificial diet were treated with aqueous test solutions prepared from 10′000 ppm DMSO stock solutions by pipetting. After drying, the plates were infested with L2 larvae (10 to 15 per well). The samples were assessed for mortality 5 days after infestation.

[5] = test system: Spodoptera littoralis (Egyptian Cotton Leaf Worm); assay: Spodoptera littoralis (Egyptian cotton leaf worm), feeding/contact activity, mortality; conditions: 72 h, application rate 200 ppm, L1 larvae, 3 days after infestation, read-out: mortality
Description: Spodoptera littoralis (Egyptian Cotton Leaf Worm): Feeding/Contact Activity
Cotton leaf discs were placed onto agar in 24-well microtiter plates and sprayed with aqueous test solutions prepared from 10′000 ppm DMSO stock solutions. After drying the leaf discs were infested with five L1 larvae. The samples were assessed for mortality 3 days after infestation.

[6] = test system: Tetranychus urticae (Two-Spotted Spider Mite); assay: Tetranychus urticae (two-spotted spider mite), feeding/contact activity, mortality; conditions: 192 h, application rate 200 ppm, mixed population (mobile stages), 8 days after infestation
Description: Tetranychus urticae (Two-Spotted Spider Mite): Feeding/Contact Activity
Bean leaf discs on agar in 24-well microtiter plates were sprayed with aqueous test solutions prepared from 10′000 ppm DMSO stock solutions. After drying the leaf discs were infested with a mite population of mixed ages. The samples were assessed for mortality on mixed population (mobile stages) 8 days after infestation.

[7] = test system: Thrips tabaci (Onion Thrips); assay: Thrips tabaci (onion thrips), feeding/contact activity, mortality; conditions: 144 h, application rate 200 ppm, thrips population of mixed ages, 6 days after infestation, read-out: mortality
Description: Thrips tabaci (Onion Thrips): Feeding/Contact Activity
as §1, with “on” for “onto”, “in” for “in a”, “plates” for “plate”, “drying” for “drying,”, “a thrips” for “an aphid”

[8] = test system: Plutella xylostella (Diamond Back Moth, Larvicide L-2/3); assay: Biological comparison: insecticidal activity against Plutella xylostella, larvicide L-2/3, sprayed Chinese cabbage plants; conditions: 120 h
Description: Biological Comparison Data:
Compound A is disclosed in WO2014/122083 as example (Ic-2) (p. 82, Table 3). The activities of compounds A is compared with the activities of compound 41 and 42, according to the present invention. The tests are carried out at different concentrations (ppm).
a) Insecticidal Activity Against Plutella xylostella (Diamond Back Moth, Larvicide L-2/3, Feeding/Contact)
Chinese cabbage plants are sprayed with diluted test solutions in an application chamber. 1 day after treatment, excised leaves are placed in petri dishes and infested with 10 L2 (2 replicates). Samples are checked 5 days after infestation for mortality, feeding behavior, and growth regulation.

[9] = concentration 0.0125 ppm, L2 larvae, 5 days after infestation, read-out: Mortality (%)
[10] = concentration 0.05 ppm, L2 larvae, 5 days after infestation, read-out: Mortality (%)
[11] = concentration 0.2 ppm, L2 larvae, 5 days after infestation, read-out: Mortality (%)
[12] = concentration 0.8 ppm, L2 larvae, 5 days after infestation, read-out: Mortality (%)

Structure (SMILES) | mortality at 200 ppm [1] | mortality at 200 ppm [2] | mortality at 200 ppm [3] | mortality at 200 ppm [4] | mortality at 200 ppm [5] | mortality at 200 ppm [6] | mortality at 200 ppm [7] | mortality at 0.0125 ppm [8] | mortality at 0.05 ppm [8] | mortality at 0.2 ppm [8] | mortality at 0.8 ppm [8] | mortality at 0.0125 ppm [8, 9] | mortality at 0.05 ppm [8, 10] | mortality at 0.2 ppm [8, 11] | mortality at 0.8 ppm [8, 12]
Cn1nc(C(F)(F)C(F)(F)F)c(SC2CC2)c1-n1cc(-c2ccc(Cl)c(C(=O)NC3CC3)c2)cn1 [Compound 20] | ≥ 80% | ≥ 80% | ≥ 80% | ≥ 80% | ≥ 80% | ≥ 80% | ≥ 80% |  |  |  |  |  |  |  | 
Cn1nc(C(F)(F)C(F)(F)F)c(C(F)(F)F)c1-n1cc(-c2ccc(Cl)c(C(=O)NC3(C#N)CC3)c2)cn1 [Cpd A, reference compound] |  |  |  |  |  |  |  | 35% | 85% | 100% | 100% |  |  |  | 
Cn1nc(C(F)(F)C(F)(F)F)c(C2CC2)c1-n1cc(-c2ccc(Cl)c(C(=O)NC3(C#N)CC3)c2)cn1 [Compound 9] | ≥ 80% | ≥ 80% | ≥ 80% | ≥ 80% | ≥ 80% | ≥ 80% | ≥ 80% |  |  |  |  |  |  |  | 
Cn1nc(C(F)(F)C(F)(F)F)c(SC2CC2)c1-n1cc(-c2ccc(Cl)c(C(=O)NC3(C#N)CC3)c2)cn1 [Compound 19] | ≥ 80% | ≥ 80% | ≥ 80% | ≥ 80% | ≥ 80% | ≥ 80% | ≥ 80% |  |  |  |  |  |  |  | 
CN(C(=O)c1cc(-c2cnn(-c3c(OC(F)F)c(C(F)(F)C(F)(F)F)nn3C)c2)ccc1Cl)C1(C#N)CC1 [Compound 41] | ≥ 80% | ≥ 80% |  | ≥ 80% | ≥ 80% | ≥ 80% | ≥ 80% |  |  |  |  | 90% | 100% | 100% | 100%
Cn1nc(C(F)(F)C(F)(F)F)c(OC(F)F)c1-n1cc(-c2cnc(Cl)c(C(=O)NC3CC3)c2)cn1 [Compound 22] | ≥ 80% | ≥ 80% | ≥ 80% | ≥ 80% | ≥ 80% | ≥ 80% | ≥ 80% |  |  |  |  |  |  |  | 
CCN(C(=O)c1cc(-c2cnn(-c3c(OC(F)F)c(C(F)(F)C(F)(F)F)nn3C)c2)ccc1Cl)C1(C#N)CC1 [Compound 42] | ≥ 80% | ≥ 80% | ≥ 80% | ≥ 80% | ≥ 80% | ≥ 80% | ≥ 80% |  |  |  |  | 95% | 100% | 100% | 100%
Cn1nc(C(F)(F)C(F)(F)F)c([S+]([O-])C2CC2)c1-n1cc(-c2ccc(Cl)c(C(=O)NC3(C#N)CC3)c2)cn1 (stereo not drawn) [Compound 36] | ≥ 80% | ≥ 80% | ≥ 80% | ≥ 80% | ≥ 80% | ≥ 80% | ≥ 80% |  |  |  |  |  |  |  | 
